US20120070511A1, “MITOCHONDRIAL INHIBITORS AND USES THEREOF” (priority 2009, published 2012)

Legend:
Type in all cases: cell-based
[1] = system: multiple myeloma cell lines (MM.1S, 8226, KMS-11, U266)
Description: (§1) Cytotoxicity assay: Cells were incubated for 24 hr at 37° C. in 5% CO2 at which time drug treatments began and continued for 24 hr. At this time attached cells were trypsinized and combined with their respective culture media while suspension cells were directly transferred to a tube followed by centrifugation at 400 g for 5 min. The pellets were resuspended in 1 ml of Hanks solution and analyzed by Vi-Cell (Beckman Coulter, Fullerton, Calif.) cell viability analyzer.

[2] = system: non-myeloma cell lines (NALM6, 143B, MDA-MB-435, 1420); settings: higher concentrations; all cell types
Description: as §1

MM.1S and REH cells = test: ATP levels after 6 h of CCCP treatment; settings: 6 h CCCP; REH versus MM.1S
Description: (§2) A) Reversal of CCCP induced toxicity by either 10 μM BAPTA-AM or 50 μM of Z-VAD was investigated using trypan blue exclusion assays. The bars represent the average of triplicate samples +SD. B) ATP levels were assayed following 6 h of treatment with indicated concentrations of CCCP. The bars represent the average of triplicate samples +SD. C) Induction of UPR, activation of AMPK pathway and cleavage of caspase 3 was analyzed by western blots following 24 h treatment with indicated concentrations of CCCP in MM.1S and REH cell lines. β-Actin was used as a loading control. D) The quantification of phosphorylated AMPK and total AMPK bands in the previous panel was done using a Bio-Rad gel reader which employs Quality I software. The bars represent the fold increase in the ratio of p-AMPK/AMPK in treated versus untreated samples from three independent experiments +SD.

[3] = system: MM cell lines (MM1.S, 8226, KMS-11, U266); test: Measurement of cytoplasmic calcium (indo-1 fluorescence ratio 400/500 nm); settings: MM cell lines
Description: (§3) Measurement of cytoplasmic calcium: Cytoplasmic Ca^2+ concentration was estimated by using the cell permeant fluorochrome indo-1-AM (Invitrogen, Carlsbad, Calif.). When excited at 355 nm, the maximum emission of indo-1 shifts from 500 nm to 400 nm following its binding to free Ca^2+. Thus, the ratio of reading at 400 nm and 500 nm correlates with concentration of cytoplasmic Ca^2+. Experiments were performed in cells loaded with indo-1 by incubating them with 2.5 μM of this fluorochrome at 37° C. for 45 min. Cells were then centrifuged at 400 g for 5 min and resuspended in their growth medium followed by distribution of 100 μl of aliquots into 96 well optical bottom plates (Nalge Nunc, Int., Rochester, N.Y.) and fluorescence was measured by Spectra Max Gemini Plus (Molecular Devices, Sunnyvale, Calif.). The average of triplicates from untreated samples was used as control reading and increase in cytoplasmic Ca^2+ was calculated as percent increase from control samples.

[4] = system: non-myeloma cell lines (NALM6, MDA-MB-435, 143B, 1420); test: as above; settings: non-myeloma cell lines (oligomycin: all cell lines)
Description: as §3

MM.1S and REH cell lines = test: Mitochondrial membrane potential (JC-1) after CCCP; settings: immediately after 10 μM CCCP
Description: […]. A) ψm potential, B) mitochondrial Ca^2+ and C) cytoplasmic Ca^2+ levels were measured using the fluorochromes JC-1, X-rhod-1 and indo-1, respectively. After 10 min of initial baseline measurement, CCCP was added into each well to achieve a final concentration of 10 μM and changes in fluorescence intensity was assayed for up to 2 h. In the graphs the time point of CCCP addition is marked as ‘0’. The graph is an average of triplicate samples with +SD.
Assaying mitochondrial function: Two parameters were assayed for mitochondrial function: Δψm and oxygen consumption. Δψm was estimated using […] (JC-1, Invitrogen, Carlsbad, Calif., USA). Oxygen consumption was measured in 3×10^6 cells using a Clark's electrode (Hansatech, Cambridge, UK).

MM.1S cells = system: MM.1S cells
Description: as §2
(§4) Western blot analysis: Western blots were performed. Membranes were probed with monoclonal rabbit anti-GRP94, anti GRP-78, anti-PDI, anti-CHOP/GADD153, anti-cleaved caspase 3 (Cell Signaling, Danvers, Mass., USA) and monoclonal mouse anti-β-actin (Sigma, St. Louis, Mo., USA).

[5] = system: CHOP/GADD153 and cleaved caspase 3 in 4 MM cell lines; test: Western blot of CHOP/GADD153 and cleaved caspase 3 (UPR-mediated apoptosis); settings: all 4 MM cell lines
Description: Western Blot analysis: Cells are plated at 10^4 cell/cm^−2 for attached cells and 3×10^5/ml for suspension cells and grown under drug treatment for the indicated times. At the end of the treatment period, cells are collected and lysed with 1% SDS in 80 mM Tris-HCL (ph 7.4) buffer supplemented with a proteinase inhibitor cocktail. DNA is fragmented by sonication and protein concentrations are measured by microBCA protein assay kit (Pierce, Rockford, Ill.). Samples are mixed with 3× Laemmli sample buffer (Cell Signaling, Danvers, Mass.) and 40 μg of protein was run on a 12% SDS-polyacrylamide gel. Gels are transferred to nitrocellulose membranes (Amersham, Piscataway, N.J.) and probed with monoclonal rabbit anti-GRP94, anti GRP-78, anti-PDI, anti-CHOP/GADD153, anti-cleaved caspase 3 (Cell Signaling, Danvers, Mass.) and monoclonal mouse anti-β-actin (Sigma, St. Louis, Mo.). Following probing, membranes are washed and incubated with HRP-conjugated secondary antibody (Invitrogen, Carlsbad, Calif.). Following addition of 1:3 diluted femto-chemiluminescent substrate (Pierce, Rockford, Ill.) membranes were exposed to blue autoradiographic film (ISC bioexpress, Kaysville, Utah). Where indicated, membranes were stripped with Stripping Buffer (Pierce, Rockford, Ill.) and reprobed with anti-β-actin (Sigma-Aldrich, St. Louis, Mo.) primary antibody. When needed, the blots were quantified using Bio-Rad gel reader which employs Quality I software (Bio-Rad, Hercules, Calif.).

[6] = system: CHOP/GADD153 and cleaved caspase 3 in MM.1S, 8226, KMS-11; test: Western blot of CHOP/GADD153 and cleaved caspase 3 in 3 MM cell lines; settings: CCCP
Description: . Induction of UPR-mediated apoptosis following treatment of 3 MM cell lines with four different mitochondrial inhibitors for various time points was assayed by western blot analysis of CHOP and cleaved caspase 3.
as §4

N#CC(C#N)=NNc1cccc(Cl)c1 [CCCP]
cytotoxic potency compared to the other mitochondrial inhibitors ([1]; 24 h, MM cells): equipotency in inducing cytotoxicity in MM cells
order of sensitivity among MM cell lines ([1]; 24 h treatment): greater in 8226 as compared to MM.1S cells
cytotoxicity (cell death) ([1]; 24 h treatment, all 4 MM cell lines): more toxic to multiple myeloma cell lines as compared to other cell types
cytotoxicity at higher concentrations [2]: significant toxicity is induced in all cell types
ATP levels (MM.1S and REH cells): decreased more significantly in REH cells, as compared to MM.1S cells
cytoplasmic Ca2+ after mitochondrial inhibitor [3]: immediate increase in cytoplasmic Ca^2+
effect on mitochondrial Ca2+ uptake ([3]; estimated from cytoplasmic Ca2+): equally inhibit mitochondrial Ca^2+ uptake
increase in cytoplasmic Ca2+ after mitochondrial inhibitor [4]: not seen in non-myeloma cell lines except for NALM6
Δψm (MM.1S and REH cell lines): significantly reduced in both cell types
CCCP concentration at which caspase 3 starts to get cleaved (MM.1S cells; 24 h, MM cells): 5 µM
CCCP concentration giving significant induction of CHOP/GADD153 expression (MM.1S cells; 24 h, MM.1S): 2.5 µM
potency in upregulating CHOP/GADD153, MM versus B-cell leukemia (MM.1S cells; FIG. 12c): four times more potent
AMPK phosphorylation at higher doses (MM.1S cells; MM.1S): suppressed
eif2α phosphorylation and ATF4 upregulation (MM.1S cells; MM.1S treated with CCCP): not detected
treatment time at which CHOP/GADD153 expression is noted [5]: 3 h
CHOP/GADD153 induction compared among the 3 MM cell lines [6]: more profound in MM.1S and 8226 as compared to KMS-11
caspase 3 cleavage compared among the 3 MM cell lines [6]: more rapidly in MM.1S and 8226 versus KMS-11
